In patent US20210395676A1, “CARRIER FOR CELL CULTURE COMPRISING MICROCAPSULES CONTAINING NATURAL OIL” (Korea Research Institute of Chemical Technology, priority 2018, published 2021):

Tested on: artificial myocardial structure (cardiac organoid)
Assay: Contractile force-based cardiac toxicity assessment of drug-treated artificial myocardial structure
Assay type: cell-based
Conditions: FIG. 15
From the text: Furthermore, after additionally treating an artificial myocardial structure prepared by coculturing gelatin oil capsules and cardiomyocytes with various drugs, contractile forces of the drug-treated artificial myocardial structure were checked.

Compound | beat rates (10 nM) | contractile forces (10 nM) | beat rates (125 nM)
CC(C)NCC(O)c1ccc(O)c(O)c1 (stereo not drawn) [Isopreterenol] | accelerated | changed strongly | –
COc1ccc(CCN(C)CCCC(C#N)(c2ccc(OC)c(OC)c2)C(C)C)cc1OC (stereo not drawn) [verapamil] | – | – | slow down and become somewhat irregular
